# Assay results from ChEMBL document CHEMBL1671662, “In vitro activities of telavancin and six comparator agents against anaerobic bacterial isolates” (2009).
# What was measured:
# Format in all cases: functional
# Clostridium sp. = assay: Antibacterial activity against Clostridium sp. by CLSI M11-A6 agar dilution method in presence of beta-lactamase inhibitor Sulbactam
# [1] = tested on: Clostridium sporosphaeroides; assay: Antibacterial activity against Clostridium sporosphaeroides by CLSI M11-A6 agar dilution method in presence of beta-lactamase inhibitor Sulbactam; conditions: Faecalispora sporosphaeroides
# [2] = tested on: Streptococcus intermedius; assay: Antibacterial activity against Streptococcus intermedius by CLSI M11-A6 agar dilution method in presence of beta-lactamase inhibitor Sulbactam
# Clostridium bolteae = assay: Antibacterial activity against Clostridium bolteae by CLSI M11-A6 agar dilution method in presence of beta-lactamase inhibitor Sulbactam; conditions: Enterocloster bolteae
# Bifidobacterium longum = assay: Antibacterial activity against Bifidobacterium longum by CLSI M11-A6 agar dilution method in presence of beta-lactamase inhibitor Sulbactam
# [3] = tested on: Prevotella melaninogenica; assay: Antibacterial activity against Prevotella melaninogenica by CLSI M11-A6 agar dilution method in presence of beta-lactamase inhibitor Sulbactam
# Bilophila wadsworthia = assay: Antibacterial activity against Bilophila wadsworthia by CLSI M11-A6 agar dilution method in presence of beta-lactamase inhibitor Sulbactam
# Anaerococcus tetradius = assay: Antibacterial activity against Anaerococcus tetradius by CLSI M11-A6 agar dilution method in presence of beta-lactamase inhibitor Sulbactam
# Clostridium subterminale = assay: Antibacterial activity against Clostridium subterminale by CLSI M11-A6 agar dilution method in presence of beta-lactamase inhibitor Sulbactam
# [4] = tested on: Peptoniphilus asaccharolyticus; assay: Antibacterial activity against Peptoniphilus asaccharolyticus by CLSI M11-A6 agar dilution method in presence of beta-lactamase inhibitor Sulbactam
# Clostridium sporogenes = assay: Antibacterial activity against Clostridium sporogenes by CLSI M11-A6 agar dilution method in presence of beta-lactamase inhibitor Sulbactam
# Clostridium scindens = assay: Antibacterial activity against Clostridium scindens by CLSI M11-A6 agar dilution method in presence of beta-lactamase inhibitor Sulbactam
# Bacteroides fragilis = assay: Antibacterial activity against Bacteroides fragilis by CLSI M11-A6 agar dilution method in presence of beta-lactamase inhibitor Sulbactam
# [5] = tested on: Enterocloster clostridioformis; assay: Antibacterial activity against Clostridium clostridioforme by CLSI M11-A6 agar dilution method in presence of beta-lactamase inhibitor Sulbactam
# Prevotella oris = assay: Antibacterial activity against Prevotella oris by CLSI M11-A6 agar dilution method in presence of beta-lactamase inhibitor Sulbactam; conditions: Segatella oris
# [6] = tested on: Paeniclostridium sordellii; assay: Antibacterial activity against Clostridium sordellii by CLSI M11-A6 agar dilution method in presence of beta-lactamase inhibitor Sulbactam; conditions: Paraclostridium sordellii
# Clostridium glycolicum = assay: Antibacterial activity against Clostridium glycolicum by CLSI M11-A6 agar dilution method in presence of beta-lactamase inhibitor Sulbactam; conditions: Terrisporobacter glycolicus
# Odoribacter splanchnicus = assay: Antibacterial activity against Bacteroides splanchnicus by CLSI M11-A6 agar dilution method in presence of beta-lactamase inhibitor Sulbactam
# [7] = tested on: Parabacteroides distasonis; assay: Antibacterial activity against Parabacteroides distasonis by CLSI M11-A6 agar dilution method in presence of beta-lactamase inhibitor Sulbactam
# Clostridium tertium = assay: Antibacterial activity against Clostridium tertium by CLSI M11-A6 agar dilution method in presence of beta-lactamase inhibitor Sulbactam
# Fusobacterium mortiferum = assay: Antibacterial activity against Fusobacterium mortiferum by CLSI M11-A6 agar dilution method in presence of beta-lactamase inhibitor Sulbactam
# Clostridium butyricum = assay: Antibacterial activity against Clostridium butyricum by CLSI M11-A6 agar dilution method in presence of beta-lactamase inhibitor Sulbactam
# Clostridium perfringens = assay: Antibacterial activity against Clostridium perfringens by CLSI M11-A6 agar dilution method in presence of beta-lactamase inhibitor Sulbactam
# [8] = tested on: Clostridium celerecrescens; assay: Antibacterial activity against Clostridium celerecrescens by CLSI M11-A6 agar dilution method in presence of beta-lactamase inhibitor Sulbactam; conditions: Lacrimispora celerecrescens
# Clostridium bartlettii = assay: Antibacterial activity against Clostridium bartlettii by CLSI M11-A6 agar dilution method in presence of beta-lactamase inhibitor Sulbactam; conditions: Intestinibacter bartlettii
# [9] = tested on: Bifidobacterium adolescentis; assay: Antibacterial activity against Bifidobacterium adolescentis by CLSI M11-A6 agar dilution method in presence of beta-lactamase inhibitor Sulbactam
# Finegoldia magna = assay: Antibacterial activity against Finegoldia magna by CLSI M11-A6 agar dilution method in presence of beta-lactamase inhibitor Sulbactam
# Clostridium leptum = assay: Antibacterial activity against Clostridium leptum by CLSI M11-A6 agar dilution method in presence of beta-lactamase inhibitor Sulbactam
# [Clostridium] innocuum = Antibacterial activity against Clostridium innocuum by CLSI M11-A6 agar dilution method in presence of beta-lactamase inhibitor Sulbactam
# Blautia luti = assay: Antibacterial activity against Ruminococcus luti by CLSI M11-A6 agar dilution method in presence of beta-lactamase inhibitor Sulbactam
# Ruminococcus obeum = assay: Antibacterial activity against Ruminococcus obeum by CLSI M11-A6 agar dilution method in presence of beta-lactamase inhibitor Sulbactam; conditions: Blautia obeum
# Clostridium hathewayi = assay: Antibacterial activity against Clostridium hathewayi by CLSI M11-A6 agar dilution method in presence of beta-lactamase inhibitor Sulbactam; conditions: Hungatella hathewayi
# Prevotella denticola = assay: Antibacterial activity against Prevotella denticola by CLSI M11-A6 agar dilution method in presence of beta-lactamase inhibitor Sulbactam
# [10] = tested on: Peptostreptococcus anaerobius; assay: Antibacterial activity against Peptostreptococcus anaerobius by CLSI M11-A6 agar dilution method in presence of beta-lactamase inhibitor Sulbactam
# Parabacteroides merdae = assay: Antibacterial activity against Parabacteroides merdae by CLSI M11-A6 agar dilution method in presence of beta-lactamase inhibitor Sulbactam
compound,measurement,setting,value
CC1(C)S[C@@H]2[C@H](NC(=O)[C@H](N)c3ccccc3)C(=O)N2[C@H]1C(=O)O [AMPICILLIN],MIC50,Clostridium sp.,0.25 µg/mL
same,MIC90,Clostridium sp.,1 µg/mL
same,MIC50,[1],0.25 µg/mL
same,MIC90,[1],1 µg/mL
same,MIC50,[2],0.5 µg/mL
same,MIC90,[2],0.5 µg/mL
same,MIC50,Clostridium bolteae,8 µg/mL
same,MIC90,Clostridium bolteae,16 µg/mL
same,MIC50,Bifidobacterium longum,0.25 µg/mL
same,MIC90,Bifidobacterium longum,1 µg/mL
same,MIC50,[3],≤ 0.12 µg/mL
same,MIC90,[3],2 µg/mL
same,MIC50,Bilophila wadsworthia,2 µg/mL
same,MIC90,Bilophila wadsworthia,4 µg/mL
same,MIC50,Anaerococcus tetradius,0.25 µg/mL
same,MIC90,Anaerococcus tetradius,0.5 µg/mL
same,MIC50,Clostridium subterminale,≤ 0.12 µg/mL
same,MIC90,Clostridium subterminale,0.25 µg/mL
same,MIC50,[4],0.25 µg/mL
same,MIC90,[4],0.5 µg/mL
same,MIC50,Clostridium sporogenes,0.25 µg/mL
same,MIC90,Clostridium sporogenes,1 µg/mL
same,MIC50,Clostridium scindens,0.25 µg/mL
same,MIC90,Clostridium scindens,1 µg/mL
same,MIC50,Bacteroides fragilis,1 µg/mL
same,MIC90,Bacteroides fragilis,8 µg/mL
same,MIC50,[5],2 µg/mL
same,MIC90,[5],16 µg/mL
same,MIC50,Prevotella oris,≤ 0.12 µg/mL
same,MIC90,Prevotella oris,2 µg/mL
same,MIC50,[6],0.25 µg/mL
same,MIC90,[6],1 µg/mL
same,MIC50,Clostridium glycolicum,0.25 µg/mL
same,MIC90,Clostridium glycolicum,1 µg/mL
same,MIC,Odoribacter splanchnicus,1 µg/mL
same,MIC50,Odoribacter splanchnicus,1 µg/mL
same,MIC90,Odoribacter splanchnicus,4 µg/mL
same,MIC50,[7],8 µg/mL
same,MIC90,[7],32 µg/mL
same,MIC50,Clostridium tertium,0.25 µg/mL
same,MIC90,Clostridium tertium,1 µg/mL
same,MIC50,Fusobacterium mortiferum,2 µg/mL
same,MIC90,Fusobacterium mortiferum,16 µg/mL
same,MIC50,Clostridium butyricum,0.25 µg/mL
same,MIC90,Clostridium butyricum,1 µg/mL
same,MIC,Clostridium perfringens,≤ 0.12 µg/mL
same,MIC50,Clostridium perfringens,≤ 0.12 µg/mL
same,MIC90,Clostridium perfringens,≤ 0.12 µg/mL
same,MIC50,[8],0.25 µg/mL
same,MIC90,[8],1 µg/mL
same,MIC50,Clostridium bartlettii,0.25 µg/mL
same,MIC90,Clostridium bartlettii,1 µg/mL
same,MIC50,[9],0.25 µg/mL
same,MIC90,[9],1 µg/mL
same,MIC50,Finegoldia magna,0.25 µg/mL
same,MIC90,Finegoldia magna,0.5 µg/mL
same,MIC50,Clostridium leptum,0.25 µg/mL
same,MIC90,Clostridium leptum,1 µg/mL
same,MIC50,[Clostridium] innocuum,0.5 µg/mL
same,MIC90,[Clostridium] innocuum,0.5 µg/mL
same,MIC50,Blautia luti,≤ 0.12 µg/mL
same,MIC90,Blautia luti,1 µg/mL
same,MIC50,Ruminococcus obeum,≤ 0.12 µg/mL
same,MIC90,Ruminococcus obeum,0.25 µg/mL
same,MIC50,Clostridium hathewayi,2 µg/mL
same,MIC90,Clostridium hathewayi,2 µg/mL
same,MIC50,Prevotella denticola,≤ 0.12 µg/mL
same,MIC90,Prevotella denticola,2 µg/mL
same,MIC50,[10],0.25 µg/mL
same,MIC90,[10],0.5 µg/mL
same,MIC50,Parabacteroides merdae,8 µg/mL
same,MIC90,Parabacteroides merdae,32 µg/mL
